The values below come from BindingDB's records for patent US117808 (H. Lundbeck, 2023).

“And” between values parts separate entries of the source, which are not always exact repeats. Equal values may be shown once.

The target in experiment [1] is Leucine-rich repeat serine/threonine-protein kinase 2 [G2019S] (Homo sapiens, UniProt Q5S007, G2019S). Put plainly: LRRK2 Wild-Type and G2019S Kinase Activity Assay. The method, then:
(§1) The LRRK2 kinase was obtained from Invitrogen (Life Technologies Corporation) and comprises residue 970 to 2527 of the full length human wild-type LRRK2 kinase, or a similar sequence with the G2019S mutation. As discussed above, this mutation increases the kinase activity relative to the wild type. The kinase reactions were performed in a 20 uL volume in 384-well plates. The kinase reaction buffer consisted of 50 mM Tris pH 8.5, 0.01% BRIJ-35, 10 mM MgCl2, 1 mM EGTA, and 2 mM DTT.In the assay, 1 nM LRRK2 WT or 250 pM LRRK2 G2019S kinase in kinase reaction buffer was incubated with the test compound (typically at 0 to 30 uM) for 30 minutes before the kinase reaction was initiated by addition of 1.3 mM ATP and 0.4 uM fluorescein-LRRKtide. The reaction mixture (20 ul total volume) was incubated for 3.5 h (for LRRK2 WT) and 3 h (for LRRK2 G2019S) at 30 C., before the reaction was terminated by addition of 10 mM EDTA and 1 nM terbium-labelled anti-phospho-LRRKtide antibody (final volume […]). The mixture was further incubated for 30 minutes at RT. TR-FRET was measured by excitation of the terbium-donor with 340 nm light and subsequent (delay time 100 us) measurement of terbium and fluorescein emission at 495 nm and 520 nm, respectively, over a time window of 1000 us. The measurement was repeated 30 times for fluorescein and 30 times for terbium emission with a 1000 us time window between repeats. TR-FRET measurements were performed on a Biotek Synergy plate. The TR-FRET signal was calculated as the emission-ratio at 520 nm over 495 nm.

In experiment [2] the target is Leucine-rich repeat serine/threonine-protein kinase 2 (Homo sapiens, UniProt Q5S007). Put plainly: LRRK2 Wild-Type and G2019S Kinase Activity Assay. As for the experimental part: as §1
Leucine-rich repeat serine/threonine-protein kinase 2, sequence (Q5S007 whole entry): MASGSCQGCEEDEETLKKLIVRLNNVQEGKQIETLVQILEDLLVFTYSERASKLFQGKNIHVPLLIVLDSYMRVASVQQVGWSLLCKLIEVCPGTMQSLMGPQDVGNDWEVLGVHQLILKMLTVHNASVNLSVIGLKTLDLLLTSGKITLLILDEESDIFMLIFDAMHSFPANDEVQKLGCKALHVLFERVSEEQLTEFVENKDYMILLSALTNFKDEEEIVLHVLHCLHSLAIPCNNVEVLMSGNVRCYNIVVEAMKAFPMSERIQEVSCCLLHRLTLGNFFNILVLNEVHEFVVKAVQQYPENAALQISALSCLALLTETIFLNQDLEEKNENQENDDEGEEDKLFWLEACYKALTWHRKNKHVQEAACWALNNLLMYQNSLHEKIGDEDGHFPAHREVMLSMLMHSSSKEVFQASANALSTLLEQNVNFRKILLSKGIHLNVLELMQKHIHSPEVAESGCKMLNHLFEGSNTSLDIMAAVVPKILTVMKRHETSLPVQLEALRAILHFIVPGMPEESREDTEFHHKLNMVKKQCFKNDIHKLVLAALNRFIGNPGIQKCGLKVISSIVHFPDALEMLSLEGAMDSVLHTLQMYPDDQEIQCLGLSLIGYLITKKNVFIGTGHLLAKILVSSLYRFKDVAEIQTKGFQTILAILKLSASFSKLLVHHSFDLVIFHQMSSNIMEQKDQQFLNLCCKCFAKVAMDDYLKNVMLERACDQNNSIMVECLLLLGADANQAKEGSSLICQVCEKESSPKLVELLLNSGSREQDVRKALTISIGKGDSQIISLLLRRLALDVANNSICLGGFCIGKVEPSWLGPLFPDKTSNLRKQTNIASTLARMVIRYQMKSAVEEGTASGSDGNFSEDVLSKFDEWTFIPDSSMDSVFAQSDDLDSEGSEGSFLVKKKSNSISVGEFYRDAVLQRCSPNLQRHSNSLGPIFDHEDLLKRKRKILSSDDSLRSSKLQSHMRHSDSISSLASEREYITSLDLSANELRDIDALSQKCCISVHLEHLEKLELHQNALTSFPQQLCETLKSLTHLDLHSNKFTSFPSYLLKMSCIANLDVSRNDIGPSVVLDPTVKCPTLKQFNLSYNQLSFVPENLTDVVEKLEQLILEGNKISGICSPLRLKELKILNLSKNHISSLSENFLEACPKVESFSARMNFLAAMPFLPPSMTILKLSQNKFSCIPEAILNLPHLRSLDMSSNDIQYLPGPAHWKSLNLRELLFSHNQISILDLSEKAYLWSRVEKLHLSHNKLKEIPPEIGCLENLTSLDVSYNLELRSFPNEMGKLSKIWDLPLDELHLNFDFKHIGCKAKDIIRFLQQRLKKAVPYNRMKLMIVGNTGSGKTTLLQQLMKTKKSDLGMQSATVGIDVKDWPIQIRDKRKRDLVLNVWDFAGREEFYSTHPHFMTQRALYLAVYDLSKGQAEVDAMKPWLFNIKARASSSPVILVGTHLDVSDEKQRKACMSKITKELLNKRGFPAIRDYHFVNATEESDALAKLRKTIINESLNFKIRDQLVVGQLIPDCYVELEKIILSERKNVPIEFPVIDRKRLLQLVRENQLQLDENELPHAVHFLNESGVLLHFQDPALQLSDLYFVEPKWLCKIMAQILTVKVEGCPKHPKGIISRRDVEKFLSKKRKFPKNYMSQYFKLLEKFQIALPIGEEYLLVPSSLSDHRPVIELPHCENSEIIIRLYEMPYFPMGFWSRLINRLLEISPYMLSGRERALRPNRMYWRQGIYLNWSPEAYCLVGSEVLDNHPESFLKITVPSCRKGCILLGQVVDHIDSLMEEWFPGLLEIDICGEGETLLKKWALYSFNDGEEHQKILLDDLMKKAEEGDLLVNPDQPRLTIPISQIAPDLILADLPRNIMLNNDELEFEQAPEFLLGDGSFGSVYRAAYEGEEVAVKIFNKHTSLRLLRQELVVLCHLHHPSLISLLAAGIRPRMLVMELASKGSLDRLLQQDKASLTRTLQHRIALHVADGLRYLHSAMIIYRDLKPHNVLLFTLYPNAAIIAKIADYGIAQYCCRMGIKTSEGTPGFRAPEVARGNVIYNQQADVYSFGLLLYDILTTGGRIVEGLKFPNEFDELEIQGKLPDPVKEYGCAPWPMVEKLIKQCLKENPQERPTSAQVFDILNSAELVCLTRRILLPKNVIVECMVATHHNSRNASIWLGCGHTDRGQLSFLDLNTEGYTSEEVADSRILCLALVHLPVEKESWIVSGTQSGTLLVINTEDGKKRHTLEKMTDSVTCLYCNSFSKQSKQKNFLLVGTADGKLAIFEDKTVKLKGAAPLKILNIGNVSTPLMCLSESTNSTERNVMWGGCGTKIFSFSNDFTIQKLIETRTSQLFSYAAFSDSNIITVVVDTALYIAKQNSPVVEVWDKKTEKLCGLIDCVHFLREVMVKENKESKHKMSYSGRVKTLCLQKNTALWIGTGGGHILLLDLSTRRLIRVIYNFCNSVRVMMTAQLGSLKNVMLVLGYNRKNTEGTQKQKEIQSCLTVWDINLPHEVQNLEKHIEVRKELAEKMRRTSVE

Leucine-rich repeat serine/threonine-protein kinase 2 [G2019S], sequence (Q5S007 whole entry G2019S): as the sequence (Q5S007 whole entry) above, with G2019S counted along it

In the case of `F[C@H]1COCC[C@@H]1n1nc2c(c1Br)Nc1ncc3c(Cl)nn(c3n1)CCCO2` [US11780851, Example 63], the IC50 in experiment [1] stood at 4 nM; in experiment [2], 11 nM.

`CCc1c2c(nn1[C@@H]1CCOCC1F)OCCCn1nc(Cl)c3cnc(nc31)N2` (some centres undefined) [US11780851, Example 55]: the results for the IC50 in experiment [1] and in experiment [2] were 1.5 nM and 5.6 nM, respectively.

On to `Cc1c2c(nn1C1CC1(F)F)OCCCn1nc(Cl)c3cnc(nc31)N2` (centres undefined) [US11780851, Example 39], for which the IC50 in experiment [1] amounted to 7.8 nM; in experiment [2], 19 nM.

For `F[C@@H]1COCC[C@H]1n1nc2c(c1Br)Nc1ncc3c(Cl)nn(c3n1)CCCO2` [US11780851, Example 62], the results for the half-maximal inhibitory concentration (IC50) in experiment [1] and in experiment [2] were 5.9 nM and 17 nM, respectively.

Turning to `Cc1c2c(nn1C1C3COCC31)OCCCn1nc(Cl)c3cnc(nc31)N2` (centres undefined) [US11780851, Example 38], the values for the IC50 in experiment [1] and in experiment [2] were 11 nM and 28 nM, respectively.

Take `Cc1c2c(nn1[C@@H]1CCCOCC1)OCCCn1nc(Cl)c3cnc(nc31)N2` [US11780851, Example 59]: the values for the IC50 in experiment [1] and in experiment [2] were 6.2 nM and 17 nM, respectively.

Regarding `Cc1c2c(nn1[C@H]1CCCOC1)OCCCn1nc(Cl)c3cnc(nc31)N2` (single isomer, unassigned) [US11780851, Example 60], the IC50 in experiment [1] came to 9 nM; in experiment [2], 25 nM.

On to `Cc1c([N+](=O)[O-])c(OCCCn2nc(Cl)c3cnc(Cl)nc32)nn1C1CCOCC1` [US11780851, Example 15], for which the IC50 in experiment [2] is 9.6 nM and 6.8 nM.

Turning to `Cc1c2c(nn1[C@@H]1CCCOC1)OCCCn1nc(Cl)c3cnc(nc31)N2` [US11780851, Example 61], the IC50 in experiment [1] stood at 2.2 nM; in experiment [2] it was 9.2 nM.

As to `Cc1c2c(nn1[C@@H]1CCOC[C@H]1C)OCCCn1nc(Cl)c3cnc(nc31)N2` [US11780851, Example 22], the IC50 in experiment [1] was 3.5 nM; in experiment [2], 10 nM.

As for `Cc1c2c(nn1[C@@H]1CCOC(C)(C)C1)OCCCn1nc(Cl)c3cnc(nc31)N2` [US11780851, Example 43], the IC50 is 5.3 nM in experiment [1] and 17 nM in experiment [2].

Turning to `Cc1c2c(nn1C13CC(C(N)=O)(C1)C3)OCCCn1nc(Cl)c3cnc(nc31)N2` [US11780851, Example 33], the values for the IC50 in experiment [1] and in experiment [2] were 5.9 nM and 18 nM, respectively.

On to `Cc1c2c(nn1CC1(C)COC1)OCCCn1nc(Cl)c3cnc(nc31)N2` [US11780851, Example 12], for which the IC50 in experiment [1] came to 12 nM; in experiment [2], 32 nM.

With `Cc1c2c(nn1[C@H]1CCOC[C@@H]1F)OCCCn1nc(Cl)c3cnc(nc31)N2` [US11780851, Example 31], the IC50 in experiment [1] was found to be 2.4 nM; in experiment [2], 5.6 nM.

Consider `CO[C@H]1CC[C@H](n2nc3c(c2Br)Nc2ncc4c(Cl)nn(c4n2)CCCO3)CC1` [US11780851, Example 50], for which the IC50 in experiment [1] was 5.3 nM; in experiment [2], 10 nM.

Turning to `Cc1c2c(nn1C1CCCCOC1)OCCCn1nc(Cl)c3cnc(nc31)N2` (centres undefined) [US11780851, Example 30], the IC50 is 4 nM in experiment [1] and 12 nM in experiment [2].

With `Cc1c2c(nn1[C@H]1CCOC3(CC3)C1)OCCCn1nc(Cl)c3cnc(nc31)N2` [US11780851, Example 54], the IC50 in experiment [1] was 0.88 nM; in experiment [2], 2.6 nM.

In the case of `Cc1c2c(nn1C1CCOCC1)OCCCn1nc(Cl)c3cnc(nc31)N2` [US11780851, Example 20], the IC50 is 2.4 nM in experiment [1] and 9.8 nM in experiment [2].

On to `Cc1c2c(nn1C1CCOCC1)OCCCn1nc(Br)c3cnc(nc31)N2` [US11780851, Example 6], for which the IC50 worked out at 2.2 nM in experiment [1] and 8 nM in experiment [2].

Regarding `Cc1c2c(nn1[C@@H]1CCO[C@@H](C)C1)OCCCn1nc(Cl)c3cnc(nc31)N2` [US11780851, Example 19], the figures for the IC50 in experiment [1] and in experiment [2] were 3.9 nM and 13 nM, respectively.

`Cc1c2c(nn1[C@@H]1CCOC[C@@H]1F)OCCCn1nc(Cl)c3cnc(nc31)N2` [US11780851, Example 32]: the IC50 came out at 6.1 nM in experiment [1] and 15 nM in experiment [2].

On to `Cc1c2c(nn1[C@H]1CCOC[C@@H]1C)OCCCn1nc(Cl)c3cnc(nc31)N2` [US11780851, Example 23], for which the IC50 in experiment [1] is 20 nM; in experiment [2], 44 nM.

As to `Cc1c2c(nn1[C@H]1CCOC[C@H]1C)OCCCn1nc(Cl)c3cnc(nc31)N2` [US11780851, Example 21], the 50% inhibitory concentration (IC50) in experiment [1] was 3.7 nM; in experiment [2], 10 nM.

`Cc1c2c(nn1C1CC3CCC(C1)O3)OCCCn1nc(Cl)c3cnc(nc31)N2` (centres undefined) [US11780851, Example 44]: the results for the IC50 in experiment [1] and in experiment [2] were 4.3 nM and 13 nM, respectively.

On to `Cc1c2c(nn1[C@H]1CC1(F)F)OCCCn1nc(Cl)c3cnc(nc31)N2` [US11780851, Example 40], for which the IC50 came to 12 nM in experiment [1] and 28 nM in experiment [2].

Consider `Cc1c2c(nn1[C@@H]1CCCCOC1)OCCCn1nc(Cl)c3cnc(nc31)N2` [US11780851, Example 29], for which the half-inhibitory concentration (IC50) was 7.3 nM and 4.3 nM in experiment [1]; 25 nM and 14 nM in experiment [2].

Regarding `Cc1c2c(nn1C1CCOC[C@@]1(C)F)OCCCn1nc(Cl)c3cnc(nc31)N2` (some centres undefined) [US11780851, Example 47], the IC50 in experiment [1] amounted to 3.1 nM; in experiment [2], 13 nM.

Consider `Clc1nn2c3nc(ncc13)Nc1c(nn([C@H]3CCOC4(CC4)C3)c1Br)OCCC2` [US11780851, Example 64], for which the figures for the IC50 in experiment [1] and in experiment [2] were 5 nM and 11 nM, respectively.

`Cc1c2c(nn1[C@@H]1CCO[C@H](C)C1)OCCCn1nc(Cl)c3cnc(nc31)N2` [US11780851, Example 52]: the values for the IC50 in experiment [1] and in experiment [2] were 10 nM and 19 nM, respectively.

Turning to `Cc1c2c(nn1C1CCOC[C@]1(C)F)OCCCn1nc(Cl)c3cnc(nc31)N2` (some centres undefined) [US11780851, Example 48], the IC50 in experiment [1] amounted to 18 nM; in experiment [2] it was 90 nM.

Turning to `Cc1c2c(nn1[C@H]1CCO[C@@H](C)C1)OCCCn1nc(Cl)c3cnc(nc31)N2` [US11780851, Example 51], the concentration for half-maximal inhibition (IC50) is 3.6 nM in experiment [1] and 11 nM in experiment [2].

Regarding `CCc1c2c(nn1[C@H]1CCOCC1F)OCCCn1nc(Cl)c3cnc(nc31)N2` (some centres undefined) [US11780851, Example 56], the figures for the IC50 in experiment [1] and in experiment [2] were 2 nM and 4.9 nM, respectively.

`Cc1c([N+](=O)[O-])c(OCCCn2nc(Cl)c3cnc(Cl)nc32)nn1[C@H]1C[C@@H](C)O[C@@H](C)C1` [US11780851, Example 41]: the results for the IC50 in experiment [1] and in experiment [2] were 6.4 nM and 17 nM, respectively.

`Cc1c2c(nn1C1(C(N)=O)CC1)OCCCn1nc(Cl)c3cnc(nc31)N2` [US11780851, Example 36]: the IC50 in experiment [1] is 7.2 nM; in experiment [2] it was 23 nM.

Consider `Clc1nn2c3nc(ncc13)Nc1c(nn([C@@H]3CCOC4(CC4)C3)c1Br)OCCC2` [US11780851, Example 65], for which the IC50 in experiment [1] came out at 1.7 nM; in experiment [2], 4.8 nM.

For orientation: IC50 means the concentration that inhibits the measured activity by half.
